Among the test systems are Klebsiella pneumoniae; Acinetobacter baumannii; Staphylococcus aureus; Escherichia coli; Pseudomonas aeruginosa; Escherichia coli UB1005.
Assay in all cases: ≥ marks a high value that may be exact or a test limit, other limits are often not marked, values filed in µg/mL are converted to µM
For test [1], the system named is Escherichia coli KCTC 1682.
Test [2] relates to Pseudomonas aeruginosa KCTC 1637.
Test [3] concerns Bacillus subtilis KCTC 3068.
In test [4] the test system is Staphylococcus epidermidis KCTC 1917.
In test [5] the test system is Staphylococcus aureus KCTC 1621.
The subject of test [6] is Salmonella typhimurium KCTC 1926.
Test [7] has as its system Enterococcus faecalis ATCC 29212.
In test [8] the test system is Staphylococcus aureus ATCC 43300.
Test [9] concerns Escherichia coli ATCC 25922.
In test [10] the test system is Pseudomonas aeruginosa ATCC 27853.
Test [11] concerns Candida albicans ATCC 10231.
Test [12] has as its system Klebsiella pneumoniae ATCC 13883.
Test [13] relates to Staphylococcus aureus ATCC 25923.
Test [14] deals with Acinetobacter baumannii ATCC 19606.
Test [15] deals with Salmonella enterica subsp. enterica serovar Typhimurium ATCC 14028.
Test [16] relates to Staphylococcus epidermidis ATCC 12228.
Test [17] relates to Staphylococcus aureus ATCC 29213.
For test [18], the system named is Salmonella enterica subsp. enterica serovar Pullorum C79-13.
Test [19] relates to Salmonella enterica subsp. enterica serovar Typhimurium C77-31.

Our source for the MIC values is DBAASP.

In brackets after ≈: the same amount, converted by molar mass. Several values for one entry are separate records, joined by “and”; a condition that tells them apart may be missing. Equal values may be shown once.

Consider `CC(C)C[C@H](NC(=O)[C@H](C)NC(=O)[C@H](Cc1c[nH]c2ccccc12)NC(=O)[C@H](CCCCN)NC(=O)[C@H](CC(N)=O)NC(=O)[C@H](Cc1c[nH]c2ccccc12)NC(=O)[C@H](CCCCN)NC(=O)[C@H](CCCCN)NC(=O)[C@H](CCCN=C(N)N)NC(=O)[C@H](Cc1ccccc1)NC(=O)[C@H](CCC(=O)O)NC(=O)[C@H](CO)NC(=O)[C@H](C)NC(=O)[C@@H](NC(=O)[C@H](CC(=O)O)NC(=O)[C@H](CC(C)C)NC(=O)[C@H](CCCN=C(N)N)NC(=O)[C@H](C)N)C(C)C)C(=O)N[C@@H](CO)C(=O)N[C@@H](CCCN=C(N)N)C(N)=O` [ARLDVASEFRKKWNKWALSR], for which the MIC is 8 µM (≈ 19.7 µg/mL) in [1]; no less than 32 µM in [2]; 8 µM (≈ 19.7 µg/mL) in test [3]; 8 µM (≈ 19.7 µg/mL) in test [4]; 16 µM (≈ 39.4 µg/mL) in test [5]; 16 µM (≈ 39.4 µg/mL) in [6].

Turning to `CC(C)[C@H](NC(=O)CN)C(=O)N[C@@H](CO)C(=O)NCC(=O)N[C@@H](Cc1cnc[nH]1)C(=O)NCC(=O)N[C@@H](CCC(N)=O)C(=O)N[C@@H](Cc1cnc[nH]1)C(=O)NCC(=O)N[C@H](C(=O)N[C@@H](Cc1cnc[nH]1)C(=O)NCC(=O)O)C(C)C` [GVSGHGQHGVHG], the MIC in [7], in test [8], in [9], in [10] and in [11] was greater than 113 µM each time.

On to `CC[C@H](C)[C@H](N)C(=O)NCC(=O)N[C@@H](CCCCN)C(=O)N[C@@H](CC(C)C)C(=O)N[C@@H](Cc1ccccc1)C(=O)N[C@@H](CCCCN)C(=O)N[C@@H](CCCN=C(N)N)C(=O)N[C@H](C(=O)N[C@H](C(=O)N[C@@H](CCC(N)=O)C(=O)N[C@@H](CCCN=C(N)N)C(=O)N[C@H](C(=O)N[C@@H](CC(C)C)C(=O)N[C@@H](CCCCN)C(=O)N[C@@H](Cc1ccccc1)C(=O)N[C@@H](CC(C)C)C(=O)N[C@@H](CCCN=C(N)N)C(=O)N[C@@H](CC(N)=O)C(=O)N[C@@H](CC(C)C)C(=O)O)[C@@H](C)CC)C(C)C)[C@@H](C)CC` [IGKLFKRIVQRILKFLRNL], for which the MIC in test [1] came out at 8 µM (≈ 18.8 µg/mL); in test [2] it was 8 µM (≈ 18.8 µg/mL); in [3], 2 µM (≈ 4.71 µg/mL); in [4] it was 8 µM (≈ 18.8 µg/mL); in test [5], 8 µM (≈ 18.8 µg/mL); in test [6], 4 µM (≈ 9.42 µg/mL).

`CC[C@H](C)[C@H](NC(=O)[C@H](CCCCN)NC(=O)CNC(=O)[C@H](C)NC(=O)[C@H](CCCCN)NC(=O)CNC(=O)[C@H](C)NC(=O)[C@@H](NC(=O)[C@H](CCCCN)NC(=O)[C@H](C)NC(=O)[C@@H](NC(=O)[C@H](CCCCN)NC(=O)CNC(=O)[C@H](C)NC(=O)[C@H](CCCCN)NC(=O)CNC(=O)[C@H](C)NC(=O)[C@@H](NC(=O)[C@@H](N)CCCCN)[C@@H](C)CC)[C@@H](C)CC)[C@@H](C)CC)C(=O)N[C@@H](C)C(N)=O` [KIAGKAGKIAKIAGKAGKIA]: the MIC in [12] is no less than 64 µM; in test [13], greater than 64 µM; in the test with Klebsiella pneumoniae it was greater than 64 µM; in test [9], greater than 64 µM; against Acinetobacter baumannii, no less than 64 µM; against Staphylococcus aureus it was greater than 64 µM. For the same compound, the MIC (in test [10]; in the test with Escherichia coli; in test [14]; against Pseudomonas aeruginosa) was greater than 64 µM throughout.

Turning to `CC[C@H](C)[C@H](NC(=O)[C@H](CCCCN)NC(=O)[C@H](CCCCN)NC(=O)[C@H](CC(C)C)NC(=O)[C@@H](N)CCCCN)C(=O)N[C@H](C(=O)N[C@H](C(=O)N[C@H](C(=O)N[C@@H](CCCCN)C(=O)N[C@H](C(=O)N[C@@H](CCCCN)C(=O)N[C@@H](CCCCN)C(N)=O)C(C)C)[C@@H](C)CC)C(C)C)C(C)C` [KLKKIVVIKVKK], the MIC stood at 8.78 µM (≈ 12.5 µg/mL) in test [1]; 17.6 µM (≈ 25 µg/mL) in test [2]; 8.78 µM (≈ 12.5 µg/mL) in test [3]; 2.2 µM (≈ 3.13 µg/mL) in test [4]; 8.78 µM (≈ 12.5 µg/mL) in test [5]; 2.2 µM (≈ 3.13 µg/mL) in [6].

As for `CC[C@H](C)[C@H](NC(=O)[C@H](CCCCN)NC(=O)[C@H](Cc1c[nH]c2ccccc12)NC(=O)[C@H](CC(C)C)NC(=O)[C@@H](N)CCCCN)C(=O)N[C@H](C(=O)N[C@H](C(=O)N[C@H](C(=O)N[C@@H](CCCCN)C(=O)N[C@H](C(=O)N[C@@H](Cc1c[nH]c2ccccc12)C(=O)N[C@@H](CCCCN)C(N)=O)C(C)C)[C@@H](C)CC)C(C)C)C(C)C` [KLWKIVVIKVWK], the MIC in [1] is no less than 32.5 µM; in [2] it was 16.2 µM (≈ 25 µg/mL); in [3] it was no less than 32.5 µM; in test [4], 16.2 µM (≈ 25 µg/mL); in test [5], 16.2 µM (≈ 25 µg/mL); in [6], 16.2 µM (≈ 25 µg/mL).

Take `CC[C@H](C)[C@H](NC(=O)[C@H](CCCN=C(N)N)NC(=O)[C@H](CCCCN)NC(=O)[C@H](CCCN=C(N)N)NC(=O)[C@@H](NC(=O)[C@H](CCCN=C(N)N)NC(=O)[C@@H](N)CCCCN)[C@@H](C)CC)C(=O)N[C@@H](CCCCN)C(=O)N[C@@H](CCCCN)C(=O)N[C@@H](Cc1c[nH]c2ccccc12)C(=O)N[C@@H](CCCCN)C(=O)N[C@@H](CCCN=C(N)N)C(N)=O` [KRIRKRIKKWKR]: the MIC is 2 µM (≈ 3.39 µg/mL) in [1]; 2 µM (≈ 3.39 µg/mL) in test [2]; 4 µM (≈ 6.78 µg/mL) in test [3]; 2 µM (≈ 3.39 µg/mL) in test [4]; 4 µM (≈ 6.78 µg/mL) in test [5]; 2 µM (≈ 3.39 µg/mL) in test [6].

In the case of `CC(C)C[C@H](NC(=O)[C@H](CC(C)C)NC(=O)[C@H](CCCN=C(N)N)NC(=O)[C@H](CCCN=C(N)N)NC(=O)[C@H](C)NC(=O)[C@H](Cc1c[nH]c2ccccc12)NC(=O)CNC(=O)[C@H](CCCN=C(N)N)NC(=O)[C@@H](N)CCCN=C(N)N)C(=O)N[C@@H](CCCN=C(N)N)C(=O)N[C@@H](C)C(=O)N[C@@H](Cc1ccccc1)C(=O)N[C@@H](C)C(=O)N[C@@H](Cc1ccccc1)C(=O)NCC(=O)N[C@@H](CCCN=C(N)N)C(=O)N[C@@H](CCCN=C(N)N)C(N)=O` [RRGWARRLLRAFAFGRR], the MIC in test [12] is 30 µM (≈ 64.3 µg/mL); in test [13] it was greater than 30 µM; in test [15], 2.9 µM (≈ 6.22 µg/mL); in test [14], 2.7 µM (≈ 5.79 µg/mL).

Consider `CC(C)C[C@H](NC(=O)CNC(=O)CNC(=O)CNC(=O)[C@H](Cc1c[nH]c2ccccc12)NC(=O)[C@H](CCCCN)NC(=O)[C@H](Cc1c[nH]c2ccccc12)NC(=O)[C@H](CCCCN)NC(=O)[C@H](Cc1c[nH]c2ccccc12)NC(=O)[C@H](CCCCN)NC(=O)CNC(=O)[C@H](CC(N)=O)NC(=O)[C@H](CCCCN)NC(=O)[C@H](Cc1c[nH]c2ccccc12)NC(=O)[C@H](CCCCN)NC(=O)[C@H](Cc1c[nH]c2ccccc12)NC(=O)[C@H](CCCCN)NC(=O)[C@@H](N)Cc1c[nH]c2ccccc12)C(=O)N[C@H](C(=O)N[C@H](C(=O)N[C@@H](CC(C)C)C(=O)N[C@H](C(=O)N[C@@H](Cc1ccccc1)C(=O)N[C@H](C(=O)O)C(C)C)C(C)C)[C@@H](C)O)C(C)C` [WKWKWKNGKWKWKWGGGLVTLVFV], for which the MIC in test [7] was 16 µM (≈ 48.3 µg/mL); in [16] it was 32 µM (≈ 96.6 µg/mL); in [17], 8 µM (≈ 24.1 µg/mL); in test [18] it was 8 µM (≈ 24.1 µg/mL); in test [9], 2 µM (≈ 6.04 µg/mL); in test [19], no less than 128 µM.

With `CC(C)C[C@H](NC(=O)[C@H](Cc1ccccc1)NC(=O)[C@@H]1CCCN1C(=O)[C@H](Cc1c[nH]c2ccccc12)NC(=O)[C@@H](N)Cc1c[nH]c2ccccc12)C(=O)N[C@@H](CCCN=C(N)N)C(=O)N[C@@H](CCCN=C(N)N)C(N)=O` [WWPFLRR], the MIC in test [7] was greater than 128 µM; in test [16], 32 µM (≈ 33.9 µg/mL); in [17], 64 µM and 128 µM; in test [15], 32 µM (≈ 33.9 µg/mL); in test [18] it was no less than 64 µM; against Escherichia coli UB1005 it was no less than 128 µM. Besides, the MIC is 64 µM and 128 µM in test [9]; 64 µM (≈ 67.8 µg/mL) in test [10]; no less than 64 µM in test [19].
